Reference: patent publication US9517993B2, “Antagonists of the toll-like receptor 1/2 complex” (THE REGENTS OF THE UNIVERSITY OF COLORADO, a body corporate, priority 2012, dated 2016)

What was measured:
TLR1/2 [1] = target: T1, TLR1/2 (Mus musculus, UniProt Q9EPQ1+Q9QUN7); experiment: In vitro TLR1/2 inhibition assay (nitric oxide, Pam3CSK4-activated RAW 264.7 macrophages); assay type: cell-based; settings: RAW 264.7 NO assay; for TLR1/2 inhibitory activity (in words, SAR and specificity): Pam3CSK4
T1 construct: production of NO in RAW 264.7 macrophage cells; endogenous in cells; host or cells: RAW 264.7
Procedure: To identify novel TLR1/2 complex inhibitors, a cell-based assay was employed to screen the NCI-2 diversity small-molecule library. This 1,363 compound library was chosen from the larger NCI library, which has more than 140,000 compounds, on the basis of availability, purity, and other pharmacological features, such as relative rigidity, number of rotatable bonds and chiral centers, the absence of obvious leaving groups and weakly bounded heteroatoms, etc. Screening was performed in a 96-well plate format using a previously established high-throughput nitric oxide (NO) assay. See e.g. Cheng et al., Small molecule inhibitors of the TLR3/dsRNA complex, J. Am. Chem. Soc. (2011), 133:3764-67, which is herein incorporated by reference in its entirety. Briefly, synthetic triacylated lipoprotein Pam3CSK4 was employed to selectively activate TLR1/2 signaling, resulting in the expression of inducible nitric oxide synthase (iNOS) and the production of NO in RAW 264.7 macrophage cells. NO levels were monitored as an indicator of Pam3CSK4-induced TLR1/2 activation to evaluate the compound's inhibitory activity.
RAW 264.7 (Mouse leukaemic monocyte macrophage cell line) cells were grown in RPMI 1640 medium, supplemented with 10% FBS, penicillin (100 U/mL) and streptomycin ([…]). RAW cells were then planted in 96-well plates at 80,000 cells per well and grown for 24 h in the media descried previously at 37° C. in a 5% CO2 humidified incubator. After 24 h, non-adherent cells and media were removed and replaced with fresh unsupplemented RPMI 1640 medium. The adherent macrophages were treated with Pam3CSK4 (CAS No. 112208-00-1; a synthetic triacylated lipopeptide (LP) that mimics the acylated amino terminus of bacterial LPs) (200 ng/mL) (Invivogen, USA), an agonist of TLR1/2, and then added different concentrates of potential inhibitor. Two rows were only treated with Pam3CSK4 as control. Plates were then incubated for an additional 24 h. Following incubation 100 μL of media was removed and added to flat black 96-well microfluor plates (Thermo Scientific, MA, USA). To each well, 10 μL of 2,3-diaminonaphthalene (0.05 mg/mL in 0.62 M aqueous HCl solution) was added and incubated for 15 min in the dark. The reaction was quenched by addition of 5 μL of a 3 M aqueous NaOH solution and the plate was read on Beckman Coulter DTX880 reader (Beckman Coulter, Calif., USA) with excitation at 365 nm and emission at 450 nm. The nitrite (a stable metabolite of nitric oxide) concentration was determined from a nitrite standard curve. The inhibition rate (%) of NO release was determined using the following formula: Inhibition (%)=[Pam3CSK4(OD450) […]]/[Pam3CSK4 (OD450)−Control (OD450)]×100. The IC50 values for both inhibition and cytotoxicity were determined graphically using software Origin v7.5.

TLR1/2 [2] = target: T2, TLR1/2 (Homo sapiens, UniProt O60603+Q15399); experiment: Fluorescence anisotropy competition assay with rhodamine-labeled Pam3CSK4; assay type: binding; parameters: His; TLR2 made in house; host or cells: baculovirus; Sf-9 for virus, High Five insect cells for expression (TLR2); settings: negative control
Text: The TLR2 protein was expressed in the baculovirus insect cell expression system using the methods described by Kuroki et al. See Iwaki et al., The extracellular Toll-like receptor 2 domain directly binds peptidoglycan derived from Staphylococcus aureus, J. Biol Chem (2002), 277:24315-20, which is herein incorporated by reference in its entirety. The activity of the TLR2 protein was validated by the fluorescence anisotropy assay. […] Good fitting (R2>0.98) inferred that compound 17 and Pam3CSK4 compete for the same binding site on the TLR1/2 dimeric surface.
In 500 μL Tris buffer (pH=7.2) add 10 μL, (1 ng/mL) rhodamine-labeled Pam3CSK4, test the fluorescence anisotropy at excitation of 549 nm and emission of 566 nm (Horiba Fluorolog 3). And 5 μL (20 μM) TLR1 (R &D) and 5 μL, (20 μM) TLR2 was added into the above buffer, then retest the anisotropy. Following, compound 17 or compound 6 was added in the buffer from the concentration of 0 to 6 μM, and the fluorescence anisotropy was tested in the corresponding concentration.
Fluorescence polarization experiments were performed at 25° C. using a Horiba Fluorolog-3 fluorometer. For direct binding measurements, serial dilutions of TLR1 (R&D, MN) and TLR2 were made in Tris buffer (pH=7.2), and an aliquot (10 μL) of 1 ng/mL rhodamine labeled Pam3CSK4, was added to a total volume of 500 μL. The competition binding solution was incubated for 30 minutes at 25° C. Serial dilutions of compound 17 or compound 6 were incubated with 20 μM TLR1, 20 μM TLR2 and rhodamine-labeled Pam3CSK4 for 30 min at room temperature.
Regression analysis was carried out using Origin 7.5 (OriginLab) ligand binding macro module. […] Equation (1): y=min+(max−min)/(1+10^x-logIC50)(total binding, x=log concentration of and rhodamine-labeled Pam3CSK4, min=nonspecific binding, max=maximum binding in absence of ligand). Equation (2): Ki=IC50/(1+[L]/Kd) ([L]=concentration of rhodamine-labeled Pam3CSK4).
Target sequence in this assay (Q15399 25-580 limits assumed): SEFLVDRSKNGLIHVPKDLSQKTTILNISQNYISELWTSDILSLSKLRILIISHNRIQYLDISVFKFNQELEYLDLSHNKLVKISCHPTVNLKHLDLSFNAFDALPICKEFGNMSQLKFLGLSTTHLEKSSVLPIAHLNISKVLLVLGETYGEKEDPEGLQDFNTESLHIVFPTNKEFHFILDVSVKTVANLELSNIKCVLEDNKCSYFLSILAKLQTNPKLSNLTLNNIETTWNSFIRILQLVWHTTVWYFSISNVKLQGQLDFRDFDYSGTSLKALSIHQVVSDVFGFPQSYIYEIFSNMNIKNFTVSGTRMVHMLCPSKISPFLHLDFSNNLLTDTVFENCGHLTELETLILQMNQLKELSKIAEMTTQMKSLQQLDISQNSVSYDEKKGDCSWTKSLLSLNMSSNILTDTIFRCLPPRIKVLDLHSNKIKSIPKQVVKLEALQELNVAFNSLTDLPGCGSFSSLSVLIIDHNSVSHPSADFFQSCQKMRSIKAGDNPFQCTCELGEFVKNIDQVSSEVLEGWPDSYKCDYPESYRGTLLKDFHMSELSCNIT
Target sequence in this assay (O60603 21-588 limits assumed): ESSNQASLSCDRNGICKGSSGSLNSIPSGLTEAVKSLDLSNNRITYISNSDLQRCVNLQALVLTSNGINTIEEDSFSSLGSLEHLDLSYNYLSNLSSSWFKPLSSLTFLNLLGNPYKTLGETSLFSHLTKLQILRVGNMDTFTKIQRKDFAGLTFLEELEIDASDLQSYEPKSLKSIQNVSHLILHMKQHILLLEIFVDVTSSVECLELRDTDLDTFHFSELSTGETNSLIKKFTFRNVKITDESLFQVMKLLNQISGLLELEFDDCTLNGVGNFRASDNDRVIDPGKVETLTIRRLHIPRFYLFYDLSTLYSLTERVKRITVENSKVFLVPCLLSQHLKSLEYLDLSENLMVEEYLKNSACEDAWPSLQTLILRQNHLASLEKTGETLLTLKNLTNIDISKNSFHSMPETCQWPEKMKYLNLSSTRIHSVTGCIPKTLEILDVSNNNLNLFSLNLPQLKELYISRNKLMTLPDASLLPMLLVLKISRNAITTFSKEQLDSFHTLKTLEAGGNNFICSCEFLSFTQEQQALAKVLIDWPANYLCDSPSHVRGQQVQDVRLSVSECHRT

TLR1/2 [3] = target: T2, TLR1/2; settings: read-out: known affinity (Kd); cited from earlier work
Target sequence in this assay (Q15399 25-786): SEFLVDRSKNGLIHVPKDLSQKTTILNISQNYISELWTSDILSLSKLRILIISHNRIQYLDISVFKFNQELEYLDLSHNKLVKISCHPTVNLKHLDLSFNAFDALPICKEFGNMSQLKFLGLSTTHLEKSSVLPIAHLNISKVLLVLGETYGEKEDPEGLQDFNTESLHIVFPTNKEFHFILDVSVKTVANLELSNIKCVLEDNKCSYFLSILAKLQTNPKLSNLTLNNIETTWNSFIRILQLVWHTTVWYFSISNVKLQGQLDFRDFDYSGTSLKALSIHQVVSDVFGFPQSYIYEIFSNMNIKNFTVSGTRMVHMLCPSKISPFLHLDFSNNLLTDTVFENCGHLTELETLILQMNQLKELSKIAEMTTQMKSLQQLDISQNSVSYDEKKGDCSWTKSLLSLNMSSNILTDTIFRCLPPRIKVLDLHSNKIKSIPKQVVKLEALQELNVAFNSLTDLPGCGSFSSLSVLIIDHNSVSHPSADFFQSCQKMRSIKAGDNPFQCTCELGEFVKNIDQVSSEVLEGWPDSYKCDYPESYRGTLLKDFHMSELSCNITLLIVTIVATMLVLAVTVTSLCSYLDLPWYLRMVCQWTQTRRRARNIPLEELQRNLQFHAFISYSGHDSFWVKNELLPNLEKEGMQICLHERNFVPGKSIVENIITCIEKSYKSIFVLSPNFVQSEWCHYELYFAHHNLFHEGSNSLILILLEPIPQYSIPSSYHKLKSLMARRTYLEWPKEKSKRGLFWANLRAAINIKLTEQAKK
Target sequence in this assay (O60603 21-784): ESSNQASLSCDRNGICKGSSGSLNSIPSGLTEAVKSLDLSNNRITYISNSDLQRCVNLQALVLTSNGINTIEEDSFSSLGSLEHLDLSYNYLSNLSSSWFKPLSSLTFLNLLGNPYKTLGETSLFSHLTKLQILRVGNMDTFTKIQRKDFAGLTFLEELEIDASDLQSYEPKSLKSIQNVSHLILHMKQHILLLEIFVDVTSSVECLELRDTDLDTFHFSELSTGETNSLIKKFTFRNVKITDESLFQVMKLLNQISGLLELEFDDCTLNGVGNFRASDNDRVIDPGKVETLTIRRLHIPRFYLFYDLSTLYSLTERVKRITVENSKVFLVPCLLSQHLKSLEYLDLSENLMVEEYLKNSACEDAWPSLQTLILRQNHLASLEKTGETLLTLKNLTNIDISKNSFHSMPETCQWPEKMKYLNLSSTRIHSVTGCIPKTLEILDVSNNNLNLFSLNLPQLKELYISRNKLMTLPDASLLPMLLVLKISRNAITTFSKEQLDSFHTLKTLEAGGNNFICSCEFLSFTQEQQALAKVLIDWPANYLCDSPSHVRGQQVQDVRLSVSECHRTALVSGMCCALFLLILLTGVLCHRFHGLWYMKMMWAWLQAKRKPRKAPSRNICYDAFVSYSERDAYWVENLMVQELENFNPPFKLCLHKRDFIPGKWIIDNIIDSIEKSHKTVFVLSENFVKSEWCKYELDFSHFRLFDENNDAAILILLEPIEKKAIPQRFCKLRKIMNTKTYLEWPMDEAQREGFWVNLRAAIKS

T1 sequence (Q9EPQ1 26-795): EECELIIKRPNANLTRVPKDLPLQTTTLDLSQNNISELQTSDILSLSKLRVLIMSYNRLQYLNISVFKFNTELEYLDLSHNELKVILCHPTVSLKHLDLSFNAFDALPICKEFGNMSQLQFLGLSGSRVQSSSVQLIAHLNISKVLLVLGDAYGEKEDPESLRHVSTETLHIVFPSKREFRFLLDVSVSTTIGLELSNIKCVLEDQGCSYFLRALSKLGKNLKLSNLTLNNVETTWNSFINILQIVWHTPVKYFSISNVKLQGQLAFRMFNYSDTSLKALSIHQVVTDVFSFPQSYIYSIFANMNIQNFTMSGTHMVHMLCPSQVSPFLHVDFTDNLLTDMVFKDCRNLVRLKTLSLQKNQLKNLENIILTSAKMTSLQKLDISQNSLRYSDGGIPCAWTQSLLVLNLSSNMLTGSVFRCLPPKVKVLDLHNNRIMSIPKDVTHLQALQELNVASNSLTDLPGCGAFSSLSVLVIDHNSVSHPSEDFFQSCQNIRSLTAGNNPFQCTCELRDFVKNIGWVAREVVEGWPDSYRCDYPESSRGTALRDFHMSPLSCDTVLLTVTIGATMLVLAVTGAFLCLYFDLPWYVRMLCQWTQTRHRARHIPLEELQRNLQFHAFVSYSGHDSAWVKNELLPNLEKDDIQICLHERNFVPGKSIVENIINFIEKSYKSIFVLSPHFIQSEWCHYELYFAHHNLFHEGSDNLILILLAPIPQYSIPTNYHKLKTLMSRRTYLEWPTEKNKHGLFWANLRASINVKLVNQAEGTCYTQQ
T1 sequence (Q9QUN7 25-784): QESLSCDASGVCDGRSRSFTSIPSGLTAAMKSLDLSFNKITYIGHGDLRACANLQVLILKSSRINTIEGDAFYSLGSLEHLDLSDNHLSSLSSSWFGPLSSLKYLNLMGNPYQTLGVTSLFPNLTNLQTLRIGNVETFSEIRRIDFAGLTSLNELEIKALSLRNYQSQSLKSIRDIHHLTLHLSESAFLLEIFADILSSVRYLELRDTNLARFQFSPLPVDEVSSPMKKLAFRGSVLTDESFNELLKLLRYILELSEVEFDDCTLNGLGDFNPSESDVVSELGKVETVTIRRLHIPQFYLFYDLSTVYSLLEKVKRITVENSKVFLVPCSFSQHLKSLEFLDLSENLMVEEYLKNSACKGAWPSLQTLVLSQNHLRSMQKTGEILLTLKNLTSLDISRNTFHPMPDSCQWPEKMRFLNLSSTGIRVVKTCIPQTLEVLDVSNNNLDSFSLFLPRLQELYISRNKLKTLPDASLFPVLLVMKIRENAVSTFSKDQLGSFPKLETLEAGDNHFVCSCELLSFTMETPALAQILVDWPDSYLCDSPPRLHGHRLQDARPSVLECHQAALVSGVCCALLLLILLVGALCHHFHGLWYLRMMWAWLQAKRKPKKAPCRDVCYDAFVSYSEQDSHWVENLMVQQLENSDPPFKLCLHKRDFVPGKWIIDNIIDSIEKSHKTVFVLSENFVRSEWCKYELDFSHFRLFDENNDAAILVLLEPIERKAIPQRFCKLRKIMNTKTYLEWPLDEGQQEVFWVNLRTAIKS

Compound	TLR1/2 inhibitory activity (in words, SAR and specificity) (TLR1/2 [1])	other results
COc1cc2cccc(OC)c(=O)c2c(OC)c1OC [compound 6, 2,3,4,6-tetramethoxy-5H-benzo[7]annulen-5-one]	significant decrease of inhibition	IC50 (TLR1/2 [2]): > 40000 nM
COc1cc2cc(C(=O)O)cc(O)c(=O)c2c(O)c1O [compound 10, 3,4,6-trihydroxy-2-methoxy-5-oxo-5H-benzo[7]annulene-8-carboxylic acid]	–	decrease of TLR1/2 inhibitory activity versus comparator (TLR1/2 [1]; SAR comparison): six-fold
COC(=O)c1cc(O)c(=O)c2c(O)c(O)c(OC)cc2c1 [compound 11, Methyl 3,4,6-trihydroxy-2-methoxy-5-oxo-5H-benzo[7]annulene-8-carboxylate]	returned the activity to the NCI35676 level	–
COc1cc2cc(C(=O)Nc3ccccc3C)cc(O)c(=O)c2c(O)c1O [compound 24, 3,4,6-trihydroxy-2-methoxy-5-oxo-N-o-tolyl-5H-benzo[7]annulene-8-carboxamide]	no significant change in activity	–
Pam3CSK4	–	Kd (TLR1/2 [3]): 1.2 nM

Continued, in another order:

TLR1/2 inhibitory activity (in words, SAR and specificity) (TLR1/2 [1])	Compound	other results
no significant influence to its activity	COc1cc2cccc(O)c(=O)c2c(O)c1O [compound 4, 3,4,6-trihydroxy-2-methoxy-5H-benzo[7]annulen-5-one]	–
activity slightly decreased	CCCCCCNC(=O)c1cc(O)c(=O)c2c(O)c(O)c(OC)cc2c1 [compound 22, N-hexyl-3,4,6-trihydroxy-2-methoxy-5-oxo-5H-benzo[7]annulene-8-carboxamide]	–
no significant change in activity	COc1cc2cc(CO)cc(O)c(=O)c2c(O)c1O [compound 23, 3,4,6-trihydroxy-8-(hydroxymethyl)-2-methoxy-5H-benzo[7]annulen-5-one]	–
